Measured values as given in patent publication US10287293B2, “Bicyclic heterocyclic compounds as PDE2 inhibitors” (Merck Sharp & Dohme Corp., priority 2015, dated 2019).

How the values were obtained:
[1] = biological target: human PDE2A1 (Homo sapiens (Human), UniProt O00408); assay: PDE selectivity panel IMAP FP assay, human PDE2; type: biochemical; conditions: FAM cAMP 50 nM containing 1000 nM cGMP
Experimental: Selectivity for PDE2, as compared to other PDE families, was assessed using the IMAP® technology. Human PDE10A2 enzyme was prepared from cytosolic fractions of transiently transfected HEK cells. […] The enzyme and the substrate were then added to the assay plates in two consecutive additions of 10 μL and then shaken to mix. The reaction was allowed to proceed at room temperature for 60 minutes. […] The enzymatic reaction was stopped by addition of 60 μL of the binding solution to each well of the assay plate. The plates were sealed and shaken for 10 seconds. The plates were incubated at room temperature for one hour, then the parallel and perpendicular fluorescence was measured using a Tecan Genios Pro plate reader (Tecan, Switzerland). […] The intrinsic PDE2 inhibitory activity of a compound which may be used in accordance with the present invention may be determined by these assays. […] Additional data is provided in the following Examples.

[2] = biological target: Rhesus PDE2A3 (Macaca mulatta, UniProt B3VTJ2); assay: PDE2 fluorescence polarization (IMAP FP) inhibition assay, rhesus enzyme; type: biochemical, rhesus macaque; conditions: FAM-cAMP 50 nM substrate, cGMP 1 uM activator
Rhesus PDE2A3, sequence (B3VTJ2 1-941): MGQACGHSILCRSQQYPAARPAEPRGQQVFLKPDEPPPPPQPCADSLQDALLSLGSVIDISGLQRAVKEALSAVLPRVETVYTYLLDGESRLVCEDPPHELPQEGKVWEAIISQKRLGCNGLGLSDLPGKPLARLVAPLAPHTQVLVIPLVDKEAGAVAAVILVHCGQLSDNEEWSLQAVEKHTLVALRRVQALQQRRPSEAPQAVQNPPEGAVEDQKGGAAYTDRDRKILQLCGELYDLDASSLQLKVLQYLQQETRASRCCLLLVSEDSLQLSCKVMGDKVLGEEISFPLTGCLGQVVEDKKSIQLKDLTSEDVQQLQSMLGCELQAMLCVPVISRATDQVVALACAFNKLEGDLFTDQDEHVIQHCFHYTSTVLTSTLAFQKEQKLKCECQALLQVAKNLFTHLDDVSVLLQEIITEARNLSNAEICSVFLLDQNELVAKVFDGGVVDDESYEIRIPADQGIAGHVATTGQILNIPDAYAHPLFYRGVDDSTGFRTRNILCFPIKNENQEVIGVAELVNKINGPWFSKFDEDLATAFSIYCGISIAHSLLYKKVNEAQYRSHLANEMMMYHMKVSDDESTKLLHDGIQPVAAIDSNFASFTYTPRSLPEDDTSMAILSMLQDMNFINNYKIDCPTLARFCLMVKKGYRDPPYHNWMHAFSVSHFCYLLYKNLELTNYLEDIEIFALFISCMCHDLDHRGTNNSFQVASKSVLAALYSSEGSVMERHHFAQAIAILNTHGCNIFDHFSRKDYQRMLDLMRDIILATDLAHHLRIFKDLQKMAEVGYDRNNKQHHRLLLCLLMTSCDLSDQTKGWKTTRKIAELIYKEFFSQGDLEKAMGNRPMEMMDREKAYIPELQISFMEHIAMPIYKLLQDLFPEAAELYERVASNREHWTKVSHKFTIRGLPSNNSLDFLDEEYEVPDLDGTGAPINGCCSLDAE

[3] = system: other PDE isoforms; conditions: literature report; cited from earlier work
[4] = literature report; cited from earlier work

human PDE2A1, sequence (O00408 other isoform, or with tags, fused parts or gaps): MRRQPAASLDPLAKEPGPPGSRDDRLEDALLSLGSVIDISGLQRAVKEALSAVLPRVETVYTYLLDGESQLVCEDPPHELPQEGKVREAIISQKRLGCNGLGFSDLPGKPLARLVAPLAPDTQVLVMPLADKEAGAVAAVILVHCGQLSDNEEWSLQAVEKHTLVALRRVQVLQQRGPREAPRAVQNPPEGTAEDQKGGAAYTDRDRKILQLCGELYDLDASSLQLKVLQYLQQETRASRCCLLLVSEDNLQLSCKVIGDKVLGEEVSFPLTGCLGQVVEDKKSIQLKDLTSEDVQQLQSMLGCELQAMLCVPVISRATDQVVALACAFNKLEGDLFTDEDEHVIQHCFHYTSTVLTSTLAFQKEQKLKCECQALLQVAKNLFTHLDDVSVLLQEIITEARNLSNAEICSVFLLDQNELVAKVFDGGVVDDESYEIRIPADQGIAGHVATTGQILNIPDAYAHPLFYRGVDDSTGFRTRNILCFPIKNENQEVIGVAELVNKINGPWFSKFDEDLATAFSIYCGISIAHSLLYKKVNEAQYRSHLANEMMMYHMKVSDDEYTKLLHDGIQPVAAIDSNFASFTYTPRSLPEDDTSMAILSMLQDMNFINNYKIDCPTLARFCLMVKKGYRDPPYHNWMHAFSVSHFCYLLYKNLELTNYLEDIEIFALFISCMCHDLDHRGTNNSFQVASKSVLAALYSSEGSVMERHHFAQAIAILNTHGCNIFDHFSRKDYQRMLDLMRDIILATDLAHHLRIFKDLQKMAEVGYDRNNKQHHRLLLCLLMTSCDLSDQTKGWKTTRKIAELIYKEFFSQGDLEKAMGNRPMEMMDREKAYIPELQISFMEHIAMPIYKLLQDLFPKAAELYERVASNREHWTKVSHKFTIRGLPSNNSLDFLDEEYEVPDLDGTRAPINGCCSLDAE

Compound	Ki [1]	other results
Cc1nc2c(C(C)c3cccc(C(F)(F)F)c3F)nn(CCO)c2c(=O)[nH]1 (single isomer, unassigned) [Example 9, (R)- or (S)-3-(1-(2-Fluoro-3-(trifluoromethyl)phenyl)ethyl)-1-(2-hydroxyethyl)-5-methyl-1,6-dihydro-7H-pyrazolo[4,3-d]pyrimidin-7-one]	2800 nM	–
Cc1nc2c(C(C)c3cccc(C(F)(F)F)c3F)nn(CCO)c2c(=O)[nH]1 (single isomer, unassigned) [Example 10, (S)- or (R)-3-(1-(2-Fluoro-3-(trifluoromethyl)phenyl)ethyl)-1-(2-hydroxyethyl)-5-methyl-1,6-dihydro-7H-pyrazolo[4,3-d]pyrimidin-7-one]	206 nM	–
Cc1nc2c([C@@H](C)c3ccc(C(F)(F)F)cc3)nn([C@H](C)CO)c2c(=O)[nH]1 (single isomer, unassigned) [Example 21, 1-((R)-1-Hydroxypropan-2-yl)-5-methyl-3-((S)-1-(4-(trifluoromethyl)phenyl)ethyl)-1,6-dihydro-7H-pyrazolo[4,3-d]pyrimidin-7-one or 1-((R)-1-Hydroxypropan-2-yl)-5-methyl-3-((R)-1-(4-(trifluoromethyl)phenyl)ethyl)-1,6-dihydro-7H-pyrazolo[4,3-d]pyrimidin-7-one]	239 nM	–
Cc1nc2c([C@@H](C)c3ccc(C(F)(F)F)cc3)nn([C@H](C)CO)c2c(=O)[nH]1 (single isomer, unassigned) [Example 22, 1-((R)-1-Hydroxypropan-2-yl)-5-methyl-3-((S)-1-(4-(trifluoromethyl)phenyl)ethyl)-1,6-dihydro-7H-pyrazolo[4,3-d]pyrimidin-7-one or 1-((R)-1-Hydroxypropan-2-yl)-5-methyl-3-((R)-1-(4-(trifluoromethyl)phenyl)ethyl)-1,6-dihydro-7H-pyrazolo[4,3-d]pyrimidin-7-one]	15.6 nM	–
Cc1nc2c([C@@H](C)c3ccc(C(F)(F)F)cc3)nn([C@@H](C)CO)c2c(=O)[nH]1 (single isomer, unassigned) [Example 23, 1-((S)-1-Hydroxypropan-2-yl)-5-methyl-3-((S)-1-(4-(trifluoromethyl)phenyl)ethyl)-1,6-dihydro-7H-pyrazolo[4,3-d]pyrimidin-7-one or 1-((S)-1-Hydroxypropan-2-yl)-5-methyl-3-((R)-1-(4-(trifluoromethyl)phenyl)ethyl)-1,6-dihydro-7H-pyrazolo[4,3-d]pyrimidin-7-one]	142 nM	–
Cc1nn2c([C@@H](C)c3ccc(C(F)(F)F)cc3)nc(C)c2c(=O)[nH]1 (single isomer, unassigned) [Example 26]	–	Ki [2]: 779 nM
Cc1nn2c([C@@H](C)c3ccc(C(F)(F)F)cc3)nc(C)c2c(=O)[nH]1 (single isomer, unassigned) [Example 27]	17.2 nM	Ki [2]: 21 nM
Cc1nn2c(C(C)c3ccc(C(F)(F)F)cc3F)nc(CO)c2c(=O)[nH]1 (single isomer, unassigned) [Example 30, (R)- or (S)-7-(1-(2-fluoro-4-(trifluoromethyl)phenyl)ethyl)-5-(hydroxymethyl)-2-methylimidazo[5,1-f][1,2,4]triazin-4(3H)-one]	200 nM	–
Cc1nn2c(C(C)c3ccc(C(F)(F)F)cc3F)nc(CO)c2c(=O)[nH]1 (single isomer, unassigned) [Example 31, (S)- or (R)-7-(1-(2-fluoro-4-(trifluoromethyl)phenyl)ethyl)-5-(hydroxymethyl)-2-methylimidazo[5,1-f][1,2,4]triazin-4(3H)-one]	0.8 nM	–
Cc1nn2c(C(C)c3ccc(C(F)(F)F)c(F)c3)nc(CO)c2c(=O)[nH]1 (single isomer, unassigned) [Example 34, (R)- or (S)-7-(1-(3-fluoro-4-(trifluoromethyl)phenyl)ethyl)-5-(hydroxymethyl)-2-methylimidazo[5,1-f][1,2,4]triazin-4(3H)-one]	216 nM	–
Cc1nn2c(C(C)c3ccc(C(F)(F)F)c(F)c3)nc(CO)c2c(=O)[nH]1 (single isomer, unassigned) [Example 35, (S)- or (R)-7-(1-(3-fluoro-4-(trifluoromethyl)phenyl)ethyl)-5-(hydroxymethyl)-2-methylimidazo[5,1-f][1,2,4]triazin-4(3H)-one]	1 nM	–
Cc1nn2c(C(C)c3ccc(C4(C)CC4)cc3)nc(CO)c2c(=O)[nH]1 (single isomer, unassigned) [Example 36, (R)- or (S)-5-(hydroxymethyl)-2-methyl-7-(1-(4-(1-methylcyclopropyl)phenyl)ethyl)imidazo[5,1-f][1,2,4]triazin-4(3H)-one]	109 nM	–
Cc1nn2c(C(C)c3ccc(C4(C)CC4)cc3)nc(CO)c2c(=O)[nH]1 (single isomer, unassigned) [Example 37, (S)- or (R)-5-(hydroxymethyl)-2-methyl-7-(1-(4-(1-methylcyclopropyl)phenyl)ethyl)imidazo[5,1-f][1,2,4]triazin-4(3H)-one]	0.4 nM	–
COc1ccc(Cc2nn3c([C@@H](CCCc4ccccc4)[C@@H](C)O)nc(C)c3c(=O)[nH]2)cc1OC [Bay 60-7550]	–	potency at other PDE isoforms [3]: significant potency; brain penetration [4]: limited

Second part, led by results:

Ki [1]	Compound	other results
298 nM	Cc1nn2c([C@@H](C)c3ccc(C(F)(F)F)cc3)nc(CO)c2c(=O)[nH]1 (single isomer, unassigned) [Example 28]	–
1.2 nM	Cc1nn2c([C@@H](C)c3ccc(C(F)(F)F)cc3)nc(CO)c2c(=O)[nH]1 (single isomer, unassigned) [Example 29]	–
62.5 nM	Cc1nn2c(C(C)c3ccc(OC(F)(F)F)cc3)nc(CO)c2c(=O)[nH]1 (single isomer, unassigned) [Example 32, (R)- or (S)-5-(hydroxymethyl)-2-methyl-7-(1-(4-(trifluoromethoxy)phenyl)ethyl)imidazo[5,1-f][1,2,4]triazin-4(3H)-one]	–
1.2 nM	Cc1nn2c(C(C)c3ccc(OC(F)(F)F)cc3)nc(CO)c2c(=O)[nH]1 (single isomer, unassigned) [Example 33, (S)- or (R)-5-(hydroxymethyl)-2-methyl-7-(1-(4-(trifluoromethoxy)phenyl)ethyl)imidazo[5,1-f][1,2,4]triazin-4(3H)-one]	–
90.3 nM	Cc1nn2c([C@@H](C)c3ccc(C(F)(F)F)cc3)nc(CCO)c2c(=O)[nH]1 (single isomer, unassigned) [Example 39]	–
6.1 nM	Cc1nn2c(C(C)c3ccc(C(F)(F)F)cc3)nc(CC#N)c2c(=O)[nH]1 (stereo not shown) [Example 38, 2-(2-methyl-4-oxo-7-(1-(4-(trifluoromethyl)phenyl)ethyl)-3,4-dihydroimidazo-[5,1-f][1,2,4]triazin-5-yl)acetonitrile]	–
